Assay results: PubChem BioAssay (NCI)
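Tested at 5 concentrations; 48 h exposure; 96-well plates; endpoints linearly interpolated, else capped at highest concentration. GI50 = concentration required for 50% inhibition of growth. TGI: total growth inhibition.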

Key:
Test in all cases: DTP human tumour cell line panel, 48 h; in the data active means GI50 below about 0.43 µM; inactive means the rest
[1] = system: SN12C renal
[2] = system: SNB-19 CNS
[3] = system: MOLT-4 leukemia
[4] = system: DLD-1 colon
[5] = system: LOX IMVI melanoma
[6] = system: SK-MEL-5 melanoma
[7] = system: SF-539 CNS
[8] = system: NCI-H460 lung
[9] = system: HCT-116 colon
[10] = system: RPMI-8226 leukemia
[11] = system: IGROV1 ovarian
[12] = system: NCI-H522 lung
[13] = system: MALME-3M melanoma
[14] = system: NCI-H226 lung
[15] = system: KM20L2 colon
[16] = system: HT29 colon
[17] = system: HL-60(TB) leukemia
[18] = system: HOP-62 NSCLC
[19] = system: KM12 colon
[20] = system: TK-10 renal
[21] = system: LXFL 529 NSCLC
[22] = system: SK-OV-3 ovarian
[23] = system: OVCAR-5 ovarian
[24] = system: U251 CNS
[25] = system: SK-MEL-28 melanoma
[26] = system: HOP-92 NSCLC
[27] = system: OVCAR-3 ovarian
[28] = system: HCT-15 colon
[29] = system: CCRF-CEM leukemia
[30] = system: COLO 205 colon
[31] = system: UO-31 renal
[32] = system: SR leukemia
[33] = system: M19-MEL melanoma
[34] = system: OVCAR-8 ovarian
[35] = system: M14 melanoma
[36] = system: ACHN renal
[37] = system: DMS 273 small cell lung
[38] = system: SK-MEL-2 melanoma
[39] = system: SNB-78 CNS
[40] = system: K-562 leukemia
[41] = system: DMS 114 small cell lung
[42] = system: A549 NSCLC
[43] = system: OVCAR-4 ovarian
[44] = system: UACC-62 melanoma
[45] = system: RXF 393 renal
[46] = system: SW-620 colon
[47] = system: XF 498 CNS
[48] = system: SF-268 CNS
[49] = system: HCC-2998 colon

Cc1cc2c(cc1O)[nH]c1cc3c(cc12)C=CC(C)(C)O3
24.9 µM: TGI [32]
14.5 µM: TGI [49]
7.41 µM: TGI [5]
16.9 µM: TGI [35]
inactive: GI50 [1] 6.32 µM | GI50 [4] 12.7 µM | GI50 [5] 3.95 µM | GI50 [6] 17.5 µM | GI50 [7] 4.08 µM | GI50 [8] 5.36 µM | GI50 [9] 12.8 µM | GI50 [11] 22.9 µM | GI50 [12] 8.39 µM | GI50 [13] 10.1 µM | GI50 [14] 18.9 µM | GI50 [15] 9.35 µM | GI50 [16] 11.8 µM | GI50 [17] 6.98 µM | GI50 [18] 7.95 µM | GI50 [19] 5.26 µM | GI50 [21] 9.31 µM | GI50 [24] 6.06 µM | GI50 [25] 14.5 µM | GI50 [26] 9.85 µM | GI50 [28] 8.73 µM | GI50 [29] 19.8 µM | GI50 [31] 11.4 µM | GI50 [32] 6.39 µM | GI50 [33] 19.6 µM | GI50 [35] 6.07 µM | GI50 [36] 9.3 µM | GI50 [37] 5.04 µM | GI50 [42] 6.42 µM | GI50 [44] 6.75 µM | GI50 [45] 4.93 µM | GI50 [46] 7.64 µM | GI50 [48] 6.69 µM | GI50 [49] 6.73 µM
22.6 µM: TGI [27]
12.2 µM: TGI [37]
9.41 µM: TGI [34]
12.4 µM: TGI [8]
14.3 µM: TGI [24]
9.96 µM: TGI [7]
24.4 µM: TGI [18]
21.6 µM: TGI [42]
active: GI50 [3] 0.00323 µM
> 25 µM: TGI [2] | TGI [3] | TGI [4] | TGI [6] | TGI [9] | TGI [10] | TGI [11] | TGI [12] | TGI [13] | TGI [14] | TGI [15] | TGI [16] | TGI [17] | TGI [20] | TGI [21] | TGI [22] | TGI [23] | TGI [25] | TGI [26] | TGI [28] | TGI [29] | TGI [30] | TGI [31] | TGI [33] | TGI [36] | TGI [38] | TGI [39] | TGI [40] | TGI [41] | TGI [43] | TGI [44] | TGI [46] | TGI [47] | TGI [48]
11.5 µM: TGI [45]
11.9 µM: TGI [19]
18.9 µM: TGI [1]
